Test results published in publication PMC10436550, “Subacute toxicity evaluations of LPM3480392 in rats, a full µ-opioid receptor biased agonist” (Frontiers in Pharmacology, 2023).
Where two headings read alike, the source gives them in different places.

Assay: Toxicokinetics, plasma LPM3480392 after intravenous administration
Assay type: in vivo, Sprague Dawley (SD) rats
Conditions: Sprague-Dawley, rat, plasma; for concentration at 2 min: intravenous; for AUC(0-t): iv, read-out: AUC0–12h
Description: Blood samples from animals in LPM3480392 groups were collected at predose and 2 min, 30 min, 1 h and 4 h postdose of the 1st dosing on Days 1 and 28; at 2 min and 4 h postdose of the 2nd dosing on Days 1 and 28; at 2 min, 1 h and 4 h postdose the 3rd dosing on Days 1 and 28. Animals in control group were sampled at predose and 2 min postdose of the 1st dosing on Days 1 and 28. Approximately 0.36 mL of blood was collected from the jugular vein of surviving TK animals at each time point. Whole blood samples were anticoagulated with EDTA-K2 and centrifuged at 2°C–8°C and 1800 × g for 10 min. The harvested plasma was stored below −66°C before the analysis. LC-MS/MS methods (liquid chromatograph/mass spectrometer) were used to detect concentrations of LPM3480392 at each time point. TK parameters (AUC, Cmax, Tmax) were calculated by Phoenix WinNonlin (Pharsight) 8.2. The detection instruments include ultra-performance liquid chromatography (Waters, United States ACQUITY UPLC I -CLASS) and triple quadrupole tandem mass spectrometer (Waters, United States, Xevo TQ-S).

Fc1ccc([C@]2(CCNCc3cccc(Cl)c3)CCO[C@]3(CCOC3)C2)nc1 [LPM3480392]
concentration at 2 min (female, 0.6 mg/kg/day, 0.6 mg/kg/day iv, 28th dosing day, F, read-out: C2min (The 3rd dosing)): 68.5 ± 11.8 ng/mL | concentration at 2 min (female, 1.2 mg/kg/day, 1.2 mg/kg/day iv, 1st dosing day, F, read-out: C2min (The 1st dosing)): 181 ± 24.8 ng/mL | concentration at 2 min (female, 1.2 mg/kg/day, 1.2 mg/kg/day iv, 1st dosing day, F, read-out: C2min (The 2nd dosing)): 169 ± 26.2 ng/mL | concentration at 2 min (female, 1.2 mg/kg/day, 1.2 mg/kg/day iv, 1st dosing day, F, read-out: C2min (The 3rd dosing)): 157 ± 25.5 ng/mL | concentration at 2 min (female, 1.2 mg/kg/day, 1.2 mg/kg/day iv, 28th dosing day, F, read-out: C2min (The 1st dosing)): 187 ± 20 ng/mL | concentration at 2 min (female, 1.2 mg/kg/day, 1.2 mg/kg/day iv, 28th dosing day, F, read-out: C2min (The 2nd dosing)): 167 ± 14.1 ng/mL | concentration at 2 min (female, 1.2 mg/kg/day, 1.2 mg/kg/day iv, 28th dosing day, F, read-out: C2min (The 3rd dosing)): 166 ± 16.1 ng/mL | concentration at 2 min (female, 2.4 mg/kg/day, 2.4 mg/kg/day iv, 1st dosing day, F, read-out: C2min (The 1st dosing)): 331 ± 25.1 ng/mL | concentration at 2 min (female, 2.4 mg/kg/day, 2.4 mg/kg/day iv, 1st dosing day, F, read-out: C2min (The 2nd dosing)): 292 ± 33.6 ng/mL | concentration at 2 min (female, 2.4 mg/kg/day, 2.4 mg/kg/day iv, 1st dosing day, F, read-out: C2min (The 3rd dosing)): 234 ± 52.1 ng/mL | concentration at 2 min (female, 2.4 mg/kg/day, 2.4 mg/kg/day iv, 28th dosing day, F, read-out: C2min (The 1st dosing)): 356 ± 81.9 ng/mL | concentration at 2 min (female, 2.4 mg/kg/day, 2.4 mg/kg/day iv, 28th dosing day, F, read-out: C2min (The 2nd dosing)): 387 ± 54.9 ng/mL | concentration at 2 min (female, 2.4 mg/kg/day, 2.4 mg/kg/day iv, 28th dosing day, F, read-out: C2min (The 3rd dosing)): 323 ± 20.7 ng/mL | AUC(0-t) (female, 0.6 mg/kg/day, 0.6 mg/kg/day iv, 1st dosing day, F): 319 ± 56 ng·h/mL | AUC(0-t) (female, 0.6 mg/kg/day, 0.6 mg/kg/day iv, 28th dosing day, F): 331 ± 48.3 ng·h/mL | AUC(0-t) (female, 1.2 mg/kg/day, 1.2 mg/kg/day iv, 1st dosing day, F): 719 ± 122 ng·h/mL | AUC(0-t) (female, 1.2 mg/kg/day, 1.2 mg/kg/day iv, 28th dosing day, F): 735 ± 63.4 ng·h/mL | AUC(0-t) (female, 2.4 mg/kg/day, 2.4 mg/kg/day iv, 1st dosing day, F): 1310 ± 57.9 ng·h/mL | AUC(0-t) (female, 2.4 mg/kg/day, 2.4 mg/kg/day iv, 28th dosing day, F): 1580 ± 129 ng·h/mL | concentration at 2 min (male, 0.6 mg/kg/day, 0.6 mg/kg/day iv, 1st dosing day, M, read-out: C2min (The 1st dosing)): 98.1 ± 21.3 ng/mL | concentration at 2 min (male, 0.6 mg/kg/day, 0.6 mg/kg/day iv, 1st dosing day, M, read-out: C2min (The 2nd dosing)): 70.5 ± 14.7 ng/mL | concentration at 2 min (male, 0.6 mg/kg/day, 0.6 mg/kg/day iv, 1st dosing day, M, read-out: C2min (The 3rd dosing)): 64.7 ± 10.8 ng/mL | concentration at 2 min (male, 0.6 mg/kg/day, 0.6 mg/kg/day iv, 28th dosing day, M, read-out: C2min (The 1st dosing)): 84.3 ± 20.2 ng/mL | concentration at 2 min (male, 0.6 mg/kg/day, 0.6 mg/kg/day iv, 28th dosing day, M, read-out: C2min (The 2nd dosing)): 77.9 ± 8.2 ng/mL | concentration at 2 min (male, 0.6 mg/kg/day, 0.6 mg/kg/day iv, 28th dosing day, M, read-out: C2min (The 3rd dosing)): 79.4 ± 7.61 ng/mL | concentration at 2 min (male, 1.2 mg/kg/day, 1.2 mg/kg/day iv, 1st dosing day, M, read-out: C2min (The 1st dosing)): 170 ± 10.7 ng/mL | concentration at 2 min (male, 1.2 mg/kg/day, 1.2 mg/kg/day iv, 1st dosing day, M, read-out: C2min (The 2nd dosing)): 142 ± 28.9 ng/mL | concentration at 2 min (male, 1.2 mg/kg/day, 1.2 mg/kg/day iv, 1st dosing day, M, read-out: C2min (The 3rd dosing)): 139 ± 29.2 ng/mL | concentration at 2 min (male, 1.2 mg/kg/day, 1.2 mg/kg/day iv, 28th dosing day, M, read-out: C2min (The 1st dosing)): 171 ± 26.2 ng/mL | concentration at 2 min (male, 1.2 mg/kg/day, 1.2 mg/kg/day iv, 28th dosing day, M, read-out: C2min (The 2nd dosing)): 113 ± 9.1 ng/mL | concentration at 2 min (male, 1.2 mg/kg/day, 1.2 mg/kg/day iv, 28th dosing day, M, read-out: C2min (The 3rd dosing)): 131 ± 18.7 ng/mL | concentration at 2 min (male, 2.4 mg/kg/day, 2.4 mg/kg/day iv, 1st dosing day, M, read-out: C2min (The 1st dosing)): 328 ± 33.8 ng/mL | concentration at 2 min (male, 2.4 mg/kg/day, 2.4 mg/kg/day iv, 1st dosing day, M, read-out: C2min (The 2nd dosing)): 289 ± 10.5 ng/mL | concentration at 2 min (male, 2.4 mg/kg/day, 2.4 mg/kg/day iv, 1st dosing day, M, read-out: C2min (The 3rd dosing)): 225 ± 40.9 ng/mL | concentration at 2 min (male, 2.4 mg/kg/day, 2.4 mg/kg/day iv, 28th dosing day, M, read-out: C2min (The 1st dosing)): 346 ± 46 ng/mL | concentration at 2 min (male, 2.4 mg/kg/day, 2.4 mg/kg/day iv, 28th dosing day, M, read-out: C2min (The 2nd dosing)): 259 ± 68.3 ng/mL | concentration at 2 min (male, 2.4 mg/kg/day, 2.4 mg/kg/day iv, 28th dosing day, M, read-out: C2min (The 3rd dosing)): 317 ± 47.9 ng/mL | AUC(0-t) (male, 0.6 mg/kg/day, 0.6 mg/kg/day iv, 1st dosing day, M): 310 ± 35.6 ng·h/mL | AUC(0-t) (male, 0.6 mg/kg/day, 0.6 mg/kg/day iv, 28th dosing day, M): 366 ± 14.7 ng·h/mL | AUC(0-t) (male, 1.2 mg/kg/day, 1.2 mg/kg/day iv, 1st dosing day, M): 607 ± 83.4 ng·h/mL | AUC(0-t) (male, 1.2 mg/kg/day, 1.2 mg/kg/day iv, 28th dosing day, M): 625 ± 28.9 ng·h/mL | AUC(0-t) (male, 2.4 mg/kg/day, 2.4 mg/kg/day iv, 1st dosing day, M): 1190 ± 87.1 ng·h/mL | AUC(0-t) (male, 2.4 mg/kg/day, 2.4 mg/kg/day iv, 28th dosing day, M): 1400 ± 168 ng·h/mL
